Tests used:
[1] = Solubility of the compound by CLND method; type: physicochemical
[2] = Lipophilicity, log D of the compound at pH 7.4 by chromatographic method; type: physicochemical; conditions: buffer
[3] = Permeability of the compound by PAMPA; type: ADME; conditions: read-out: permeability
[4] = Dissociation constant, pKa of compound; type: physicochemical
[5] = Stability in minipig microsomes assessed as clearance; type: ADME, Sus scrofa, Microsome; conditions: pig
[6] = Stability in minipig Hepatocyte assessed as clearance; type: ADME, cell-based, Sus scrofa; conditions: pig, hepatocytes; read-out: CLH
[7] = Clearance in iv dosed rat; type: ADME, organism-based; conditions: in vivo
[8] = Volume of distribution at steady state in iv dosed rat; type: ADME, organism-based; conditions: in vivo, read-out: Vdss
[9] = Half life in iv dosed rat; type: ADME, organism-based; conditions: in vivo
[10] = Unbound clearance in iv dosed rat; type: ADME, organism-based; conditions: in vivo

| solubility kinetic [1] [µM] | chromatographic logD [2] | Papp [3] [×10⁻⁶ cm/s] | pKa [4] | CLint scaled [5] [mL/min/kg] | CLint scaled [6] [mL/min/kg] | clearance [7] [mL/min/kg] | Vd [8] [L/kg] | half-life [9] [h] | CL free [10] [mL/min/kg] | Compound |
| --- | --- | --- | --- | --- | --- | --- | --- | --- | --- | --- |
| ≥ 331 | 4.3 | 53 | 5.7 | 0.92 | < 0.89 | 12.3 | 1.8 | 1.5 | 192 | COc1ncc2cc1NS(=O)(=O)CCN(C)Cc1ccc3c(c1)N2CCO3 |
| ≥ 406 | 1.6 | 14 | 9.4 | 1.63 | < 0.89 | 233 | 8.5 | 0.6 | 587 | COc1ncc(N2CCOc3ccc(CN(C)C)cc32)cc1NS(C)(=O)=O |

From ChEMBL document CHEMBL4619790, “Design and Development of a Macrocyclic Series Targeting Phosphoinositide 3-Kinase δ” (ACS Med Chem Lett, 2020)
